Structures can show the parent of a compound that is named as a salt. Where two headings read alike, the source gives them in different places.
Experiments:
[1] = tested on: subgenomic RNA-replicon HCV (genotype 1b (gT1b), don Con1); experiment: Antiviral activity in Huh7 HCV subgenomic replicon cells, immunoenzymatic assay (IEA); type: cell-based, hepatitis C virus; settings: Huh7 cells with HCV gT1b replicon, 3 days incubation
Protocol: Antiviral activity of substituted azoles of the general formula 1 was determined in the human hepatoma cell line Huh7, comprising subgenomic RNA-replicon HCV (genotype 1b (gT1b), don Con1). A version of immumoenzymatic assay (IEA) on viral protein NS5A in 96-well plate was used as an experimental method. Cytotoxicity of the compounds was estimated in parallel regime. Cells Huh7 were seeded in 96-well plate (7.5×10^3 cells to each well in 100 μl of culture medium). Solutions of the tested compounds in DMEM medium {DMEM) 1×; Source: Cellgro; Catalogue: 10-013-CV} were prepared immediately before use. Eleven serial three fold dilutions with variation of concentrations from 20 nM to 0.2 pM were prepared. In 4 hours after seeding, serial dilutions of the compounds were added to the cells (100 μl to each well). Final concentration of tested compounds was varied from 10 nM to 0.1 pM, and DMSO—0.5%. If it was necessary, higher concentrations of the disclosed azoles were investigated. Each dilution of the compound was tested on two identical wells. Then the cells were incubated for three days at 37° C./5% CO2 and fixed by addition of acetone/methanol (1:1) mixture in amount of 250 μl/well. In 1 min the cells were washed 3 times with PBS (Phosphate Buffered Saline) solution. Then the cells were blocked by addition of 10% fetal calf serum in PBS solution in amount of 150 μl/well for 1 h at room temperature. Then, the cells were incubated with mouse monoclonal antibodies to cor-antigen HCV, don C7-50 (Source: Affinity BioReagents; Catalogue: MA1-080) (100 μl/well, working dilution—1:500 in 10% fetal calf serum in PBS solution) for 2 h at 37° C. The cells were washed 6 times with PBS/0.05% Tween 20 solution, then, they were incubated for 1 h with goat anti-mouse immunoglobulin antibodies (conjugated with horseradish peroxidase, 100 μl/well, working dilution—1:2500 in 10% fetal calf serum in PBS solution). The cells were washed 6 times with PBS/0.05% Tween 20 solution, once with PBS solution, after that substrate (1 tablet of o-phenylenediamine (oPD)+12 ml citrate/phosphate buffer+5 μl 30% H2O2) in amount of 100 μl/well was added. The plates were kept for 30 min in the dark at room temperature. The reaction was arrested by the addition of 2N H2SO4 in amount of 100 μl/well, and optical density (wavelength 490 nm) was measured by means of multiscan plate reader Victor3 V 1420 (Perkin Elmer). IC50 values (azole concentration, lowering the level of virus RNA-replicon on 50%) for every tested azole were calculated with the help of XLfit 4 program.

[2] = tested on: human hepatoma cell line Huh7; experiment: Cytotoxicity in Huh7 cells (ATPLite); type: cell-based; settings: 96 h incubation, read-out: CC50, nM (gT1b)
Protocol: (§1) Cytotoxicity of the disclosed azoles was tested in experiments in the human hepatoma cell line Huh7. The amount of living cells was determined with the help of ATPLite kit (Perkin Elmer, Boston, USA) in accordance with manufacturer instructions. Cytotoxic action was estimated by seeding the cells into black microplate with transparent bottom (96 wells, 10^4 cells to each well). Three independent repeatings were used for each bis-azole. The tested bis-azoles were added in 18 h, after that the cells were incubated together with the compounds for 96 h. Each well was washed two times with phosphate buffered saline (0.2 ml/well) and then the cells were lysed by addition of cell buffer (50 μl/well) (all mentioned reagents are included in ATPLite kit). The microplate was incubated for 5 min on a rotating platform at 600 r/min, after that 50 μl of substrate solution (a part of ATPLite kit) was added into each well. The microplate was incubated for additional 5 min on a rotating platform at 600 r/min, kept for 10 min in the dark, after that luminescence was measured using TopCount NXT instrument (Packard, Perkin Elmer).
(§2) CC50 Value corresponding to bis-azole concentration at which 50% of cells were ruined was used as quantitative characteristic for cytotoxicity estimation. Calculation of CC50 value: for calculation of inhibition effectiveness (% Inh) the following equation was used: % Inh=[(L^pos−L^ex)/L^pos−L^neg)]*100%, where L^pos—positive control, luminescence in the wells with cells without compounds; L^neg—negative control, luminescence in the wells with medium without cells; L^ex—luminescence in wells with a compound of definite concentration. Then, CC50 values were calculated with the help of XLfit 4 program. Test results for novel azoles of the general formula 1 testify their high (nanomolar) or very high (picomolar) activity.

[3] = Cytotoxicity in Huh7 cells (ATPLite); type: cell-based, human; settings: human, Huh7 cells (human hepatoma cell line), 96 h incubation, read-out: CC50, nM (gT1b)
Protocol: as §1, §2

`COC(=O)N[C@H](C(=O)N1CCC[C@H]1c1ncc(C#CC#Cc2ccc(-c3cnc([C@@H]4CCCN4C(=O)[C@@H](NC(=O)OC)C(C)C)[nH]3)cc2)[nH]1)C(C)C` [1.1•2HCl, [(1S)-1-[[(2S)-2-[5-[4-[4-[2-[(2S)-1-[(2S)-2-[(Methoxycarbonyl)amino]-3-methyl-1-oxobutyl]-2-pyrrolidinyl]-1H-imidazol-5-yl]-1,3-butadiynyl]phenyl]-1H-imidazol-2-yl]-1-pyrrolidinyl]carbonyl]-2-methylpropyl]-carbamic acid methyl ester dihydrochloride] gave an IC50 ([1]; dihydrochloride) of 0.0034 nM and a CC50 ([2]; dihydrochloride) of 85100 nM.

Molecule `COC(=O)N[C@H](C(=O)N1CCC[C@H]1c1ncc(-c2ccc(C#CC#Cc3cnc([C@@H]4CCCN4C(=O)[C@@H](NC(=O)OC)C(C)C)[nH]3)cc2)[nH]1)c1ccccc1` [1.3•2HCl, Methyl (5)-[(S)-2-(5-{4-[4-(2-{(S)-1-[(S)-2-(methoxycarbonylamino)-3-methylbutanoyl]pyrrolidin-2-yl}-3H-imidazol-4-yl)buta-1,3-diynyl]phenyl}-1H-imidazol-2-yl)pyrrolidin-1-yl]-2-oxo-1-phenylethylcarbamate dihydrochloride] has an IC50 [1] of 0.0054 nM and a CC50 [2] of over 10000 nM.

Molecule `COC(=O)N[C@H](C(=O)N1CCC[C@H]1c1ncc(C#CC#Cc2ccc3cc(-c4cnc([C@@H]5CCCN5C(=O)[C@@H](NC(=O)OC)C(C)C)[nH]4)ccc3c2)[nH]1)C(C)C` [1.6•2HCl, Methyl [(S)-1-((S)-2-{5-[2-(4-{2-[(S)-1-((S)-2-methoxycarbonylamino-3-methyl-butyryl)-pyrrolidin-2-yl]-3H-imidazol-4-yl}-buta-1,3-diynyl)-naphthalen-6-yl]-1H-imidazol-2-yl}-pyrrolidine-1-carbonyl)-2-methyl-propyl]-carbamate dihydrochloride] has an IC50 ([1]; Hepatitis C virus, Huh-7, 72 h) of 0.0046 nM and a CC50 at 96 h [3] of over 10000 nM.

`COC(=O)N[C@H](C(=O)N1CCC[C@H]1c1ncc(C#CC#Cc2cccc3c(-c4cnc([C@@H]5CCCN5C(=O)[C@@H](NC(=O)OC)C(C)C)[nH]4)cccc23)[nH]1)C(C)C` [1.7•2HCl, Methyl [(S)-1-((S)-2-{5-[5-(4-{2-[(S)-1-((S)-2-methoxycarbonylamino-3-methyl-butyryl)-pyrrolidin-2-yl]-3H-imidazol-4-yl}-buta-1,3-diynyl)-naphthalen-1-yl]-1H-imidazol-2-yl}-pyrrolidine-1-carbonyl)-2-methyl-propyl]-carbamate dihydrochloride] showed an IC50 ([1]; Hepatitis C virus, Huh-7, 72 h) of 0.0036 nM and a CC50 at 96 h [3] of over 10000 nM.

For `COC(=O)N[C@H](C(=O)N1CCC[C@H]1c1ncc(C#CC#Cc2ccc(-c3cnc([C@@H]4CCCN4C(=O)[C@@H](NC(=O)OC)C(C)C)[nH]3)c3ccccc23)[nH]1)C(C)C` [1.8•2HCl, Methyl [(S)-1-((S)-2-{5-[4-(4-{2-[(S)-1-((S)-2-methoxycarbonylamino-3-methyl-butyryl)-pyrrolidin-2-yl]-3H-imidazol-4-yl}-buta-1,3-diynyl)-naphthalen-1-yl]-1H-imidazol-2-yl}-pyrrolidine-1-carbonyl)-2-methyl-propyl]-carbamate dihydrochloride], the IC50 ([1]; Hepatitis C virus, Huh-7, 72 h) was 0.0048 nM and the CC50 at 96 h [3] was over 10000 nM.

`COC(=O)N[C@H](C(=O)N1CCC[C@H]1c1nc(C#CC#Cc2ccc(-c3c[nH]c([C@@H]4CCCN4C(=O)[C@@H](NC(=O)OC)C(C)C)n3)s2)c[nH]1)C(C)C` [1.9•2HCl, [(S)-1-((S)-2-{4-[4-(5-{2-[(S)-1-((S)-2-Methoxycarbonylamino-3-methyl-butyryl)-pyrrolidin-2-yl]-1H-imidazol-4-yl}-thiophen-2-yl)-buta-1,3-diynyl]-1H-imidazol-2-yl}-pyrrolidine-1-carbonyl)-2-methyl-propyl]-carbamic acid methyl ester dihydrochloride] gave an IC50 ([1]; Hepatitis C virus, Huh-7, 72 h) of 0.0032 nM and a CC50 at 96 h [3] of over 10000 nM.

Molecule `COC(=O)N[C@H](C(=O)N1CCC[C@H]1c1ncc(C#CC#Cc2csc3c(-c4cnc([C@@H]5CCCN5C(=O)[C@@H](NC(=O)OC)C(C)C)[nH]4)csc23)[nH]1)C(C)C` [1.10•2HCl, Methyl [(S)-1-((S)-2-{5-[6-(4-{2-[(S)-1-((S)-2-Methoxycarbonylamino-3-methyl-butyryl)-pyrrolidin-2-yl]-3H-imidazol-4-yl}-buta-1,3-diynyl)-thieno[3,2-b]thiophen-3-yl]-1H-imidazol-2-yl}-pyrrolidine-1-carbonyl)-2-methyl-propyl]-carbamate dihydrochloride] has an IC50 ([1]; Hepatitis C virus, Huh-7, 72 h) of 0.002 nM and a CC50 at 96 h [3] of over 10000 nM.

Work on `COC(=O)N[C@H](C(=O)N1CCC[C@H]1c1ncc(C#CC#Cc2ccc(-c3cnc([C@@H]4CCCN4C(=O)[C@@H](NC(=O)OC)C(C)C)[nH]3)cc2)[nH]1)C(C)C` [Compound 1.1, [(1S)-1-[[(2S)-2-[5-[4-[4-[2-[(2S)-1-[(2S)-2-[(methoxycarbonyl)amino]-3-methyl-1-oxobutyl]-2-pyrrolidinyl]-1H-imidazol-5-yl]-1,3-butadiynyl]phenyl]-1H-imidazol-2-yl]-1-pyrrolidinyl]carbonyl]-2-methylpropyl]-carbamic acid methyl ester] yielded an IC50 ([1]; Hepatitis C virus, Huh-7, 72 h) of 0.0031 nM and a CC50 [2] of over 10000 nM.

“Methyl (R)-[(S)-2-(5-{4-[4-(2-{(S)-1-[(S)-2-(methoxycarbonylamino)-3-methylbutanoyl]pyrrolidin-2-yl}-3H-imidazol-4-yl)buta-1,3-diynyl]phenyl}-1H-imidazol-2-yl)pyrrolidin-1-yl]-2-oxo-1-phenylethylcarbamate dihydrochloride [1.4•2HCl]” gave an IC50 [1] of 0.0018 nM and a CC50 [2] of over 10000 nM.

Molecule “Methyl (S)-[(S)-2-(5-{4-[4-(2-{(S)-1-[(S)-2-(methoxycarbonylamino)-3-methylbutanoyl]pyrrolidin-2-yl}-3H-imidazol-4-yl)buta-1,3-diynyl]phenyl}-1H-imidazol-2-yl)pyrrolidin-1-yl]-2-oxo-1-phenylethylcarbamate dihydrochloride [1.5•2HCl]” has an IC50 [1] of 0.0082 nM and a CC50 [2] of over 10000 nM.

Source: US9428491B2, “Substituted azoles, antiviral active component, pharmaceutical composition, method for preparation and use thereof” (priority 2010, dated 2016)
